According to BigSolDB 2.1:

CN1CCN(c2cc3c(cc2F)c(=O)c(C(=O)O)cn3-c2ccc(F)cc2)CC1
solubility (mole fraction)
Settings | 293.15 K | 295.15 K | 298.15 K | 300.15 K | 303.15 K | 305.15 K | 308.15 K | 310.15 K | 313.15 K
in acetone | 0.0052 | 0.0058 | 0.0067 | 0.0073 | 0.0081 | 0.0087 | 0.0096 | 0.0104 | 0.011
in ethanol | 0.0387 | 0.0435 | 0.0507 | 0.0559 | 0.0636 | 0.0683 | 0.0754 | 0.0795 | 0.0856
in methanol | 0.0064 | 0.0068 | 0.0073 | 0.0077 | 0.0084 | 0.0088 | 0.0095 | 0.0099 | 0.0104
